Laboratory results reported in paper PMC8041304, “Halogen Atoms in the Protein–Ligand System. Structural and Thermodynamic Studies of the Binding of Bromobenzotriazoles by the Catalytic Subunit of Human Protein Kinase CK2” (The Journal of Physical Chemistry. B, 2021).
“And” between values parts separate entries of the source, which are not always exact repeats. Equal values may be shown once.

What was measured:
hCK2α [1] = target: T1, hCK2α (Homo sapiens, UniProt P68400); test: Fluorescence-monitored thermal denaturation (nanoDSF) of hCK2α complexes; format: binding; details: protein 2.5 μM, ligand 25 μM; for Tm (°C) at pH 7.5: hCK2α in complex with ligand; for ΔTm (°C) at pH 7.5: unfolding temperature with ligand minus without
T1 construct: made in house
T1 sequence (P68400 whole entry): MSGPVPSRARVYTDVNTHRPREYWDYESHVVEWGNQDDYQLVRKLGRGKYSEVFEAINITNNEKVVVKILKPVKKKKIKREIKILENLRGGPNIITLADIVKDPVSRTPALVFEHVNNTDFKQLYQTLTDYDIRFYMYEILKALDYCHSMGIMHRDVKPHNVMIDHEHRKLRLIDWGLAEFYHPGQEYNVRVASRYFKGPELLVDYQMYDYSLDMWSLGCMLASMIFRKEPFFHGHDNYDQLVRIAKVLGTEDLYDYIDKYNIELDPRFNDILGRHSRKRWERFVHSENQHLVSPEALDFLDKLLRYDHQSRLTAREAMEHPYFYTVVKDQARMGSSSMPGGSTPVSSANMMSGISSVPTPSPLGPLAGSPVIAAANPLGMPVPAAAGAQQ
Method: The samples were loaded into nanoDSF grade Standard Capillaries (NanoTemper Technologies) and analyzed using the Prometheus NT.48 nanoDSF device (NanoTemper Technologies). Thermal unfolding of the protein was monitored using a linear thermal ramp (1 °C·min^–1; 20–80 °C) with an excitation power of 30%.
This prompted us to measure the thermal stabilities of hCK2α and its complexes at pH 7.5 by fluorescence-monitored thermal denaturation (nanoDSF) (Table 2).

hCK2α [2] = target: T1, hCK2α; test: Isothermal titration calorimetry (MicroCal iTC200), reverse titration; format: binding; details: for ΔGbind, free energy of binding: ITC; for ΔSrt, entropic term for loss of ligand rotational and translational degrees of freedom: calculated from ligand molecular mass; for Ts, temperature at which the entropy change upon ligand binding is zero: estimated from the linear fit of ΔS(T); for ΔSHE(Ts), hydrophobic-effect contribution to the entropy change upon binding: ≈ 1.35∙ΔCp,bind∙ln(Ts/386)
Method: ITC measurements were carried out using the MicroCal iTC200 (Malvern) calorimeter. The hCK2α samples were diluted to the required protein concentration with the 25 mM Tris-HCl pH 8 buffer containing 0.5 M NaCl. Stock ligand solutions were diluted with the appropriate DMSO volume prior to mixing with the buffer to obtain the required ligand concentration and a final DMSO content of 1%. Due to the limited solubility of halogenated benzotriazoles, all titration experiments were performed in the reverse mode, in which buffered ligand solution was placed in the calorimetric cell and titrated with the protein solution.[35]
(§1) In all experiments the maximum ligand concentration of 10 μM was used to minimize a possible contribution of the secondary binding site.

hCK2α [3] = target: T1, hCK2α; test: Isothermal titration calorimetry (NanoITC); format: binding; details: pH 8
Method: as §1

[4] = Density measurements: partial molar volume and thermal expansivity of the solute; format: physicochemical; details: 50 mM phosphate buffer pH 11; for α2^0, thermal volumetric expansivity of the solute: 20, 25, 30 °C; for V2^0, partial molar volume: 25 °C
Method: Partial molar volumes were estimated with a density meter Anton Paar DMA 5000 M at 20, 25, and 30 °C from the concentration–density dependency for compounds dissolved in 50 mM phosphate buffer (pH 11). The experimental procedure and the data analysis method were described previously.[36],[57],[58] The partial molar volume at 25 °C (V2^0) and thermal volumetric expansivity of the solute (α2^0 = ∂V2^0/∂T) were estimated globally from two independent dilution series. The density of pure solvent (d0) was extrapolated individually for each experimental condition (i.e., temperature and buffer preparation). The change of d0 with temperature was further used to determine thermal volumetric expansivity coefficient of the bulk buffer according to the formula α0 = −(∂d0/∂T)/d0.
According to the Lum, Chandler, and Weeks (LCW) theory, the hydrophobic interactions scale for solutes of subnanometer size with the volume of the molecule rather than its surface.[61] We have recently proposed partial molar volume as the extensive parameter to describe both the solute volume and the solute-induced reorganization of the solvation shell.[36],[57],[58],[62],[63] By analyzing density data at three temperatures (20, 25, and 30 °C), we could estimate the partial molar volume of the ligand (V2^0) and the bulk solvent density (d0(T)). We could further separate the thermal expansivity coefficient of the bulk solvent (α0) and the apparent expansivity of the solute (α2^0). The latter parameter is comprised mainly of the thermal expansion effect of the hydration shell. The values of α0 fell within the narrow range of (26.9 ± 1.3) × 10^–5 K^–1, which is close to the literature data for water (25.72 × 10^–5 K^–1 at 25 °C).[64] […] The solute thermal expansivity (α2^0), together with the change of isobaric heat capacity upon ligand binding (ΔCp,bind), has already been associated with the properties of the solvation layer.[65],[66] Importantly, α2^0 is proportional to the partial molar volume V2^0 (Figure 3D). So, V2^0 may be another descriptor of hydrophobic interactions. Consequently, the volume-normalized solute expansivity coefficient (α = α2^0/V2^0) is almost the same for all studied bromobenzotriazoles (232 ± 22 × 10^–5 K^–1). Importantly, this value substantially exceeds the thermal expansivity coefficient of the bulk buffer (α0 = 26.9 ± 1.3 × 10^–5 K^–1), clearly confirming that water organization changes with temperature more near the solute surface than in the bulk.

hCK2α [5] = target: T1, hCK2α; design: method as in PMID 25891901; details: cited from earlier work
hCK2α [6] = target: T1, hCK2α; design: method as in PMID 23155426; details: pH 7.5; cited from earlier work
[7] = design: method as in doi:10.1016/j.molliq.2019.111527; details: calculated water–octanol partition coefficient; cited from earlier work
[8] = design: method as in PMID 32162783; details: HPLC-derived hydrophobicity; cited from earlier work
[9] = design: method as in PMID 22632480; details: pH 8.0; cited from earlier work
[10] = iTC200, 15 °C, pH 8, independent experiments separately evaluated
[11] = iTC200, 20 °C, pH 8, independent experiments separately evaluated
[12] = iTC200, 25 °C, pH 8, independent experiments separately evaluated
[13] = iTC200, 30 °C, pH 8, independent experiments separately evaluated
[14] = iTC200, 35 °C, pH 8, independent experiments separately evaluated

| Structure (SMILES) | Tm (°C) at pH 7.5 (hCK2α [1]) | ΔTm (°C) at pH 7.5 (hCK2α [1]) | ΔGbind, free energy of binding (hCK2α [2]; 25 °C, pH 8) | ΔSrt, entropic term for loss of ligand rotational and translational degrees of freedom (hCK2α [2]) | Ts, temperature at which the entropy change upon ligand binding is zero (hCK2α [2]) | Kd (hCK2α [2]; [10]) | Kd (hCK2α [2]; [11]) | Kd (hCK2α [2]; [12]) | Kd (hCK2α [2]; [13]) | Kd (hCK2α [2]; [14]) | ΔSHE(Ts), hydrophobic-effect contribution to the entropy change upon binding (hCK2α [2]) | α2^0, thermal volumetric expansivity of the solute [4] | V2^0, partial molar volume [4] | ΔTm (°C) at pH 8 (hCK2α [5]) | IC50 (hCK2α [6]) | log P [7] | log(τ) [8] | further results |
| --- | --- | --- | --- | --- | --- | --- | --- | --- | --- | --- | --- | --- | --- | --- | --- | --- | --- | --- |
| Brc1cc2[nH]nnc2c(Br)c1Br [4,5,6-Br3Bt] | 53.84 ± 0.04 °C | 8.7 ± 0.1 °C | –39.5 ± 0.4 kJ·mol^–1 | -301 J∙mol-1∙K-1 | 280 ± 36 K | 89 nM and 51 nM | 114 nM and 130 nM | 123 nM and 116 nM | 189 nM and 109 nM | 160 nM and 215 nM | 295 ± 30 J∙mol-1∙K-1 | 0.49 ± 0.24 cm^3·mol^–1·K^–1 | 156.0 ± 1.0 cm^3·mol^–1 | 8.4 ± 0.1 °C | 0.38 ± 0.02 µM | 2.96 | –0.20 | Kd (hCK2α [3]; 15 °C): 65 ± 13 nM; ΔG (hCK2α [3]; 15 °C): -9.49 ± 0.12 kcal/mol; ΔH (hCK2α [3]; 15 °C): -6.93 ± 0.14 kcal/mol; ΔS (hCK2α [3]; 15 °C): 37 ± 4 J·mol-1·K-1; Kd (hCK2α [3]; 20 °C): 81 ± 19 nM; ΔG (hCK2α [3]; 20 °C): -9.51 ± 0.14 kcal/mol; ΔH (hCK2α [3]; 20 °C): -7.43 ± 0.22 kcal/mol; ΔS (hCK2α [3]; 20 °C): 30 ± 5 J·mol-1·K-1; Kd (hCK2α [3]; 25 °C): 42 ± 17 nM; ΔG (hCK2α [3]; 25 °C): -10.1 ± 0.239 kcal/mol; ΔH (hCK2α [3]; 25 °C): -9.46 ± 0.311 kcal/mol; ΔS (hCK2α [3]; 25 °C): 9 ± 4 J·mol-1·K-1; Kd (hCK2α [3]; 30 °C): 96 ± 17 nM; ΔG (hCK2α [3]; 30 °C): -9.73 ± 0.12 kcal/mol; ΔH (hCK2α [3]; 30 °C): -11.2 ± 0.287 kcal/mol; ΔS (hCK2α [3]; 30 °C): -21 ± 6 J·mol-1·K-1; Kd (hCK2α [3]; 35 °C): 217 ± 94 nM; ΔG (hCK2α [3]; 35 °C): -9.39 ± 0.263 kcal/mol; ΔH (hCK2α [3]; 35 °C): -13.5 ± 1.46 kcal/mol; ΔS (hCK2α [3]; 35 °C): -56 ± 23 J·mol-1·K-1 |
| Brc1ccc2n[nH]nc2c1 [5-BrBt] | 47.17 ± 0.02 °C | 2.0 ± 0.1 °C | –34.4 ± 0.6 kJ·mol^–1 | -277 J∙mol-1∙K-1 | 281 ± 152 K | 880 nM and 490 nM | 730 nM and 550 nM | 930 ± 280 nM | 1270 nM and 990 nM | 1330 nM and 1890 nM | 120 ± 56 J∙mol-1∙K-1 | 0.14 ± 0.20 cm^3·mol^–1·K^–1 | 132.7 ± 0.8 cm^3·mol^–1 | 1.8 ± 0.1 °C | 26 ± 3 µM | 1.73 | –0.41 | ΔG (hCK2α [2]; [12]): -8.22 ± 0.14 kcal/mol and -8.22 ± 0.359 kcal/mol; ΔSother, entropy change assigned to all other processes accompanying ligand binding (hCK2α [2]; ΔSrt + ΔSHE(Ts) + ΔSother = 0): 157 ± 56 J∙mol-1∙K-1; fraction of the ligand that is neutral [9]: 0.26 |
